In PMC3602205 (Chemico-biological interactions, 2013):
Positions count from the first letter of the chain named.

Experiments:
[1] = target: T1, Ct-FDH (carboxy-terminal ALDH domain of 10-formyltetrahydrofolate dehydrogenase, Aldh1l1) (Rattus norvegicus, UniProt P28037, C707S); test: quenching of tryptophan fluorescence; type: binding
T1 sequence (P28037 400-902 C707S): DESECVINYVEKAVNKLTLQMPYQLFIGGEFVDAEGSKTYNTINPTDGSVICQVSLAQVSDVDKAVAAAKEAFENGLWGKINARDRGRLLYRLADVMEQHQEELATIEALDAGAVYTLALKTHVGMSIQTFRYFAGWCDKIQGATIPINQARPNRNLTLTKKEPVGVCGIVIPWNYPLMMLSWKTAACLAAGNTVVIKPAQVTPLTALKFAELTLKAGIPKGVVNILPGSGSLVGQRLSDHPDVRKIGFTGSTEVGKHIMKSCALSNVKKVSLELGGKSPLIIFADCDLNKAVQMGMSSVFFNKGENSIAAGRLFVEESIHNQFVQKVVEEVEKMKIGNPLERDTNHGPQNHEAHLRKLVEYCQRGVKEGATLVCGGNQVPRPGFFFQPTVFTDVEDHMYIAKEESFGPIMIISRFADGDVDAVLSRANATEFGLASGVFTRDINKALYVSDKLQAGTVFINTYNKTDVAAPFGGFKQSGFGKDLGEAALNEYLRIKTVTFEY

[2] = target: T2, Ct-FDH (carboxy-terminal ALDH domain of 10-formyltetrahydrofolate dehydrogenase, Aldh1l1) (Rattus norvegicus, UniProt P28037); test: quenching of tryptophan fluorescence; type: binding
T2 sequence (P28037 400-902): T1 sequence (P28037 400-902 C707S) with S308C

SMILES | Kd [1] [µM] | Kd [2] [µM]
NC(=O)c1ccc[n+]([C@@H]2O[C@H](COP(=O)(O)OP(=O)(O)OC[C@H]3O[C@@H](n4cnc5c(N)ncnc54)[C@H](OP(=O)(O)O)[C@@H]3O)[C@@H](O)[C@H]2O)c1 [NADP^+] | 11 ± 1.5 | 
NC(=S)c1ccc[n+]([C@@H]2O[C@H](COP(=O)(O)OP(=O)(O)OC[C@H]3O[C@@H](n4cnc5c(N)ncnc54)[C@H](OP(=O)(O)O)[C@@H]3O)[C@@H](O)[C@H]2O)c1 [thio-NADP^+] |  | 17 ± 0.8
